Assay results: patent US8735140B2, “Preservation and composition of bioprocess algae for production of lipids, seedstock, and feed” (Kuehnle AgroSystems, Inc., priority 2008, dated 2014)

Assays:
Assay type in all cases: cell-based
Synechocystis KAS635 = assay: Trehalose preservation, storage by embedding in alginate mat; settings: 0.3M trehalose in BG11 only
Method: (§1) Flask cultures (40 ml) of cells are grown to mid-log phase with a density between 3×10^6 and 3×10^7 cells/ml, and are centrifuged. Culture medium is removed after centrifugation, resulting in more concentrated algae cells. Cells are then re-suspended in fresh medium and left overnight. Cells are centrifuged again the next day in order to remove the medium, and are then re-suspended in fresh or salt water without any nutrient. The cell density of the suspension is determined prior to storage under the various treatments. Cells in 40 ml flask cultures are grown to mid-log phase with a density of between 3×10^6 and 3×10^7 cells/ml, and are centrifuged. Culture medium is removed after centrifugation, resulting in more concentrated algae cells. Cells are then re-suspended in ideal glass solution consisting of fresh culture medium and trehalose at a concentration of 0.1M, 0.3M, and 0.5M (dihydrate trehalose 100 from Hayashibara Co. Ltd, Okayama, Japan), respectively, and left overnight with mild agitation. Cells are centrifuged again to remove the ideal glass solution the next day, and are re-suspended in fresh or salt water without any nutrient. The cell density of the resulting suspension is determined prior to storage under the various treatments. (Some cells were also treated with a 0.5M sorbitol solution). In one specific embodiment, 2% (w/v) alginate solution (Sigma-Aldrich A-2033) and 3% CaCl2 solution (Sigma-Aldrich C1016) are prepared in salt water or fresh water medium as required by specific algae species, and autoclave sterilized. Then, 2.0 ml 2% alginate solution is pipetted into each well of a BD Falcon 12-well plate. 0.2 ml algae cell suspension is then pipetted into each well and the mixture is further stirred. The alginate-cell mixture is further sprayed with 3% CaCl2 solution in a sterile pump bottle, allowing the alginate to solidify. After solidification, plates are closed and placed under low light and at ambient temperature. After stored under the above preservation conditions for 5 months, algae cells can be rejuvenated by overlaying alginate/algae mixture with 3.0 ml sterile 5.0% NaPolyphosphate (Sigma Aldrich 305553) and allowing to the mixture sit overnight. The algae/alginate/NaPolyphosphate mixture is then removed from the 12-well plate, diluted with fresh medium (3 parts fresh medium to 1 part cell suspension) and placed under light. Cell viability is determined by comparing the cell growth in control set with the experimental set. Specifically, cell counts are performed on all samples. The averaged density value (in cells per ml) for all the cultures after treatment is defined as “rejuvenation cell count.” In some samples, the percent recovery of cells immediately after storage is also determined. The formulae are illustrated as follows: Growth=(rejuvenation cell count)/(initial cell count) Cell recovery after storage=(cell density after storage)/(initial cell density), with controls set at 100% cell recovery. Viability after storage and rejuvenation in nutrient medium=(Growth of treatment)/(Growth of control)×100%, with controls set at 100% viability

Chlorella KAS603 [1] = assay: as above
Method: as §1

Chlorella KAS503 = assay: as above
Method: as §1

Tetraselmis KAS633 = assay: as above
Method: as §1

Chlorella KAS603 [2] = assay: Trehalose preservation, pretreatment with 0.5M sorbitol and embedding in alginate mat; settings: for % viability after storage & rejuvenation / Cell recovery after storage, relative to control: 0M control = 100%; for Cell number after 21 weeks in storage & rejuvenation: 3 weeks rejuvenation; for Growth after storage & rejuvenation: 21 weeks + 3 weeks rejuvenation
Method: Cells in 40 ml flask cultures are grown to mid-log phase with a density of between 3×10^6 and 3×10^7 cells/ml, and are centrifuged. Culture medium is removed after centrifugation, resulting in more concentrated algae cells. Cells are then re-suspended in ideal glass solution consisting of fresh culture medium and trehalose at a concentration of 0.1M, 0.3M, and 0.5M (dihydrate trehalose 100 from Hayashibara Co. Ltd, Okayama, Japan), respectively, and left overnight with mild agitation. Cells are centrifuged again to remove the ideal glass solution the next day, and are re-suspended in fresh or salt water without any nutrient. The cell density of the resulting suspension is determined prior to storage under the various treatments. (Some cells were also treated with a 0.5M sorbitol solution). In one specific embodiment, 2% (w/v) alginate solution (Sigma-Aldrich A-2033) and 3% CaCl2 solution (Sigma-Aldrich C1016) are prepared in salt water or fresh water medium as required by specific algae species, and autoclave sterilized. Then, 2.0 ml 2% alginate solution is pipetted into each well of a BD Falcon 12-well plate. 0.2 ml algae cell suspension is then pipetted into each well and the mixture is further stirred. The alginate-cell mixture is further sprayed with 3% CaCl2 solution in a sterile pump bottle, allowing the alginate to solidify. After solidification, plates are closed and placed under low light and at ambient temperature. After stored under the above preservation conditions for 5 months, algae cells can be rejuvenated by overlaying alginate/algae mixture with 3.0 ml sterile 5.0% NaPolyphosphate (Sigma Aldrich 305553) and allowing to the mixture sit overnight. The algae/alginate/NaPolyphosphate mixture is then removed from the 12-well plate, diluted with fresh medium (3 parts fresh medium to 1 part cell suspension) and placed under light. In one specific embodiment, cells are treated with trehalose solution at various concentrations and left overnight. Cells are centrifuged the next day to remove the trehalose solution, and then re-suspended in sterile 0.5M D-sorbitol (Fisher Scientific […]) dissolved in salt or fresh-water medium as required by specific algae species. Cells are left to stand for 2 hours with mild agitation. After 2 hours, cells are centrifuged again to remove the 0.5M sorbitol solution and re-suspended in fresh or salt-water medium. Cells are counted after the re-suspension. Cell viability is determined by comparing the cell growth in control set with the experimental set. Specifically, cell counts are performed on all samples. The averaged density value (in cells per ml) for all the cultures after treatment is defined as “rejuvenation cell count.” In some samples, the percent recovery of cells immediately after storage is also determined. The formulae are illustrated as follows: Growth=(rejuvenation cell count)/(initial cell count) Cell recovery after storage=(cell density after storage)/(initial cell density), with controls set at 100% cell recovery. Viability after storage and rejuvenation in nutrient medium=(Growth of treatment)/(Growth of control)×100%, with controls set at 100% viability

[3] = 0.3M trehalose in F/2, 21 weeks storage and 3 weeks rejuvenation
[4] = 0.3M trehalose in F/2, 21 weeks storage and 3 weeks rejuvenation in nutrient medium
[5] = 0.3M trehalose in F/2, 21 weeks storage and 3 weeks rejuvenation, 0M control = 100%
[6] = 0.3M trehalose in F/2, 21 weeks storage in water (no nutrients)
[7] = 0.3M trehalose in F/2, 21 weeks storage, 0M control = 100%
[8] = 0.3M trehalose in F/2, 21 weeks storage, density after storage/initial density
[9] = 0.1M trehalose in F/2, 0.5M sorbitol pretreatment
[10] = 0.1M trehalose in F/2, 0.5M sorbitol pretreatment, 21 weeks
[11] = 0.3M trehalose in F/2, 0.5M sorbitol pretreatment
[12] = 0.5M trehalose in F/2, 0.5M sorbitol pretreatment

OC[C@H]1O[C@H](O[C@H]2O[C@H](CO)[C@@H](O)[C@H](O)[C@H]2O)[C@H](O)[C@@H](O)[C@@H]1O [trehalose, α-D-glycosyl-α-D-glycosylpyranoside]
Growth (Synechocystis KAS635; 21 weeks storage and 3 weeks rejuvenation): 4.72 | Cell number after storage & regrowth (Synechocystis KAS635; 21 weeks storage and 3 weeks rejuvenation in nutrient medium): 4.620 × 10^7 cells/ml | % Viability (Synechocystis KAS635; 21 weeks storage and 3 weeks rejuvenation, 0M control = 100%): 129% | Cell number after storage (Synechocystis KAS635; 21 weeks storage in water (no nutrients)): 9.798 × 10^6 cells/ml | Cell recovery after storage, relative to control (Synechocystis KAS635; 21 weeks storage, 0M control = 100%): (180%) | Cell recovery after storage (Synechocystis KAS635; 21 weeks storage, density after storage/initial density): 0.29 | Growth (Chlorella KAS603 [1]; [3]): 2.72 | Cell number after storage & regrowth (Chlorella KAS603 [1]; [4]): 4.480 × 10^7 cells/ml | % Viability (Chlorella KAS603 [1]; [5]): (149%) | Cell number after storage (Chlorella KAS603 [1]; [6]): 1.646 × 10^7 cells/ml | Cell recovery after storage, relative to control (Chlorella KAS603 [1]; [7]): (221%) | Growth (Chlorella KAS503; [3]): 5.46 | Cell number after storage & regrowth (Chlorella KAS503; [4]): 1.012 × 10^8 cells/ml | Cell number after storage (Chlorella KAS503; [6]): 1.860 × 10^7 cells/ml | Cell recovery after storage, relative to control (Chlorella KAS503; [7]): (84%) | Cell recovery after storage (Chlorella KAS503; [8]): 1.8 | Growth (Tetraselmis KAS633; [3]): 4.63 | Cell number after storage & regrowth (Tetraselmis KAS633; [4]): 1.375 × 10^7 cells/ml | % Viability (Tetraselmis KAS633; [5]): (102%) | Cell number after storage (Tetraselmis KAS633; [6]): 2.97 × 10^6 cells/ml | Cell recovery after storage, relative to control (Tetraselmis KAS633; [7]): (142%) | Cell recovery after storage (Tetraselmis KAS633; [8]): 2.22 | Cell number after 21 weeks in storage (Chlorella KAS603 [2]; [9]): 1.920 × 10^7 | % viability after storage & rejuvenation (Chlorella KAS603 [2]; [9]): (105)% | Cell number after 21 weeks in storage & rejuvenation (Chlorella KAS603 [2]; [9]): 3.102 × 10^7 cells/ml | Cell recovery after storage (Chlorella KAS603 [2]; [10]): 1.76 | Growth after storage & rejuvenation (Chlorella KAS603 [2]; [9]): 1.62 | Cell recovery after storage, relative to control (Chlorella KAS603 [2]; [10]): (61%) | Cell number after 21 weeks in storage (Chlorella KAS603 [2]; [11]): 2.378 × 10^7 | % viability after storage & rejuvenation (Chlorella KAS603 [2]; [11]): (139)% | Cell number after 21 weeks in storage & rejuvenation (Chlorella KAS603 [2]; [11]): 5.099 × 10^7 cells/ml | Growth after storage & rejuvenation (Chlorella KAS603 [2]; [11]): 2.14 | Cell recovery after storage, relative to control (Chlorella KAS603 [2]; 0.3M trehalose in F/2, 0.5M sorbitol pretreatment, 21 weeks): (123%) | Cell number after 21 weeks in storage (Chlorella KAS603 [2]; [12]): 2.113 × 10^7 | % viability after storage & rejuvenation (Chlorella KAS603 [2]; [12]): (160%) | Cell number after 21 weeks in storage & rejuvenation (Chlorella KAS603 [2]; [12]): 5.197 × 10^7 cells/ml | Growth after storage & rejuvenation (Chlorella KAS603 [2]; [12]): 2.46 | Cell recovery after storage, relative to control (Chlorella KAS603 [2]; 0.5M trehalose in F/2, 0.5M sorbitol pretreatment, 21 weeks): (155%)
